Laboratory results from patent US20240158370A1, “CK1 alpha AND DUAL CK1 alpha / GSPT1 DEGRADING COMPOUNDS” (Innovo Therapeutics, Inc., priority 2022, published 2024).

Key:
CK1α = target: T1, CK1α (Homo sapiens, UniProt P48729+Q96SW2); test: HiBiT degradation assay, CK1α, Procedure A; format: cell-based; details: six hours incubation
T1 construct: CSNK1A1-HiBit KI HEK293(LgBit) Cells; host or cells: HEK293(LgBit) knock-in cells
Procedure, shortened: (§1)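 10-pt dose response, 10–0.005 μM, 0.1% DMSO; cells 1×10^6/ml in DMEM/10% FBS, 6 h, 37° C; HiBiT lytic detection, luminescence; DC50 + Ymin by 4-parameter fit.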

GSPT1 = GSPT1 (Homo sapiens, UniProt P15170+Q96SW2); test: HiBiT degradation assay, GSPT1, Procedure A; format: cell-based; design: HiBit-GSPT1 KI HEK293(LgBit) Cells; host or cells: HEK293(LgBit) knock-in cells; details: six hours incubation
Chain of GSPT1 (P15170 whole entry): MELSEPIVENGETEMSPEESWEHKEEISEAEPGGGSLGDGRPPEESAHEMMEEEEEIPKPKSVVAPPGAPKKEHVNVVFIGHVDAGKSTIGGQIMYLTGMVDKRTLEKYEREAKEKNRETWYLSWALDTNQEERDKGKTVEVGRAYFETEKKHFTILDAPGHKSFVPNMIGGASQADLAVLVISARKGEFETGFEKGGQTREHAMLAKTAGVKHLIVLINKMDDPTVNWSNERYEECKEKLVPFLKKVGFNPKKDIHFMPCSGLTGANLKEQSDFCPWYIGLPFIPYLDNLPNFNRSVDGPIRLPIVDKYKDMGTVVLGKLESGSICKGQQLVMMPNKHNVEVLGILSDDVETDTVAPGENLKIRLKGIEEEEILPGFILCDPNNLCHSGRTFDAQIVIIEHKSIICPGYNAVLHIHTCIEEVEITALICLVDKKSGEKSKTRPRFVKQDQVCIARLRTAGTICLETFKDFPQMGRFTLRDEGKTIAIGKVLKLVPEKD
Chain of GSPT1 (Q96SW2 whole entry): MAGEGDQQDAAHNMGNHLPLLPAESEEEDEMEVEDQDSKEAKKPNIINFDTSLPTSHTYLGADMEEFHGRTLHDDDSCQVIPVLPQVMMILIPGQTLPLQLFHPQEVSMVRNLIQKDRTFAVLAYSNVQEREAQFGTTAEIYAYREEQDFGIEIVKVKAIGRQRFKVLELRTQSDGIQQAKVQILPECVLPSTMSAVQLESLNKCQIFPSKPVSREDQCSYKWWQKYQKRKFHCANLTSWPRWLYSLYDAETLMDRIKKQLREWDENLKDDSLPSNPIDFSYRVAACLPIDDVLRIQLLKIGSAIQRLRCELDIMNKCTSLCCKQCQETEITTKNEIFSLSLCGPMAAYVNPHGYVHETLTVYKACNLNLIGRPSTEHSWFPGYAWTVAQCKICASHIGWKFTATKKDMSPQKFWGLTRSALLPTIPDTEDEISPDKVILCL
Chain of GSPT1 (Q16531 whole entry partner): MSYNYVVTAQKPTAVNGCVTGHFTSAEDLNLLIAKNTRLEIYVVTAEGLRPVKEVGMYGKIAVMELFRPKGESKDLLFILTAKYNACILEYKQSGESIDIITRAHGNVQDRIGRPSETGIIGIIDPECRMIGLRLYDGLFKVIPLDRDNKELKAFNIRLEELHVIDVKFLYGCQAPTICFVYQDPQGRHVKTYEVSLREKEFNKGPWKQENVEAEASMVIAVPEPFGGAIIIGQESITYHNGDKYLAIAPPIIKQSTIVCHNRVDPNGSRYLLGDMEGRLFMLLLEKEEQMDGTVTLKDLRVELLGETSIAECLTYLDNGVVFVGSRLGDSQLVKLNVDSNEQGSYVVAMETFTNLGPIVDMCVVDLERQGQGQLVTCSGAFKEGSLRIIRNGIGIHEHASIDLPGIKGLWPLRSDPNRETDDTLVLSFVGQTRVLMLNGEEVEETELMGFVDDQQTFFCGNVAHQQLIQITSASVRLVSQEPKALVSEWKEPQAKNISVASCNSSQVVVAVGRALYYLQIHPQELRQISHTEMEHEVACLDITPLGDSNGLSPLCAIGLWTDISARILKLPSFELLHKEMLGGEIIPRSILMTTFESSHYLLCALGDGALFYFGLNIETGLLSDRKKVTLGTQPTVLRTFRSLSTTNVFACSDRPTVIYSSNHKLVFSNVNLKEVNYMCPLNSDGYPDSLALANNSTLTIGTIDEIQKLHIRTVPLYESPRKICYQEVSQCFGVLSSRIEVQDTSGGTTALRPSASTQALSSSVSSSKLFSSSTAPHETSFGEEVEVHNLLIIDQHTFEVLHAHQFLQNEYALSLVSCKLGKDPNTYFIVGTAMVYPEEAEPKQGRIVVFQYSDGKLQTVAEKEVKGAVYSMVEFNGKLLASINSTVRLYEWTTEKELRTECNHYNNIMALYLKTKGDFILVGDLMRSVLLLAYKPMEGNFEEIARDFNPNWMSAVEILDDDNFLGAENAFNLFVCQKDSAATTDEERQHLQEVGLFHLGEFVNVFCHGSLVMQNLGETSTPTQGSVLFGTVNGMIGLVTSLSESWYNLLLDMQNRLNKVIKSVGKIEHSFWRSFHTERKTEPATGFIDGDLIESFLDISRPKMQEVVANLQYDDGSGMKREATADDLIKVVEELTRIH
Procedure, shortened: as §1

T1 sequence (P48729 whole entry): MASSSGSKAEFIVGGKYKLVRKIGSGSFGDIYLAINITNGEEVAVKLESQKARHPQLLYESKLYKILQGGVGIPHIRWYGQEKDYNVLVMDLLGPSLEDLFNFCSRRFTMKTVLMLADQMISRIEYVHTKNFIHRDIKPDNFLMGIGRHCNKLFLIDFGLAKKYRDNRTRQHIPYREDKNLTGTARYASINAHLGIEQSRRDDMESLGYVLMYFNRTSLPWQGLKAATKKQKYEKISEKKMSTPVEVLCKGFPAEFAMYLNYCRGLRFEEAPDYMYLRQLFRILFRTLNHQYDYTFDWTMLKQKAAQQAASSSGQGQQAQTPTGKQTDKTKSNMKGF
T1 sequence (Q96SW2 whole entry): as the sequence (Q96SW2 whole entry) above
T1 sequence (Q16531 whole entry partner): as the sequence (Q16531 whole entry partner) above

Question: With Cn1ncc(-c2ccc3c(c2)CN(C2CCC(=O)NC2=O)C3=O)c1-c1ccc(-c2ccncc2)cc1 (stereo not shown) [Example 153] as the compound, how does the “CK1α Ymin” value (CK1α) read?
Answer: D (D = >10- 25% remaining)

Question: And the DC50 (CK1α)?
Answer: < 25 nM

Question: What about the DC50 (GSPT1) of the same compound?
Answer: ≥ 25 nM

Question: And the “GSPT1 Ymin” value (GSPT1)?
Answer: F (F = >75-100% remaining)

Question: CN1CCN(Cc2ccc(-c3c(-c4ccc5c(c4)CN(C4CCC(=O)NC4=O)C5=O)cnn3C)cc2)CC1 (stereo not shown) [Example 154] was tested. Which “CK1α Ymin” value (CK1α) did it give?
Answer: E (E = >25-75% remaining)

Question: What about the DC50 (CK1α) of the same compound?
Answer: ≥ 25 nM

Question: And the DC50 (GSPT1)?
Answer: ≥ 25 nM

Question: And the “GSPT1 Ymin” value (GSPT1)?
Answer: F (F = >75-100% remaining)

Question: With Cn1ncc(-c2ccc3c(c2)CN(C2CCC(=O)NC2=O)C3=O)c1-c1ccc2c(c1)OCC2 (stereo not shown) [Example 155] as the compound, how does the “CK1α Ymin” value (CK1α) read?
Answer: E (E = >25-75% remaining)

Question: What about the DC50 (CK1α) of the same compound?
Answer: < 25 nM

Question: And the DC50 (GSPT1)?
Answer: ≥ 25 nM

Question: And the “GSPT1 Ymin” value (GSPT1)?
Answer: F (F = >75-100% remaining)

Question: Which “CK1α Ymin” value (CK1α) does the source give for Cn1ncc(-c2ccc3c(c2)CN(C2CCC(=O)NC2=O)C3=O)c1-c1ccc(CO)cc1 (stereo not shown) [Example 156] here?
Answer: D (D = >10- 25% remaining)

Question: What about the DC50 (CK1α) of the same compound?
Answer: ≥ 25 nM

Question: What about the DC50 (GSPT1) of the same compound?
Answer: ≥ 25 nM

Question: And the “GSPT1 Ymin” value (GSPT1)?
Answer: F (F = >75-100% remaining)

Question: Which results are given for Cc1ccc(-c2c(-c3ccc4c(c3)CN(C3CCC(=O)NC3=O)C4=O)cnn2C)cc1CO (stereo not shown) [Example 157]?
Answer: CK1α Ymin (CK1α): E (E = >25-75% remaining); DC50 (CK1α): ≥ 25 nM; DC50 (GSPT1): ≥ 25 nM; GSPT1 Ymin (GSPT1): F (F = >75-100% remaining)

Question: With Cn1ncc(-c2ccc3c(c2)CN(C2CCC(=O)NC2=O)C3=O)c1-c1cccc(CN2CCCC2)c1 (stereo not shown) [Example 158] as the compound, how does the “CK1α Ymin” value (CK1α) read?
Answer: E (E = >25-75% remaining)

Question: What about the DC50 (CK1α) of the same compound?
Answer: ≥ 25 nM

Question: What about the DC50 (GSPT1) of the same compound?
Answer: ≥ 25 nM

Question: And the “GSPT1 Ymin” value (GSPT1)?
Answer: F (F = >75-100% remaining)

Question: How did the “CK1α Ymin” value (CK1α) turn out when Cn1ncc(-c2ccc3c(c2)CN(C2CCC(=O)NC2=O)C3=O)c1-c1ccc(N2CCCC2)cc1 (stereo not shown) [Example 159] was run?
Answer: D (D = >10- 25% remaining)

Question: What about the DC50 (CK1α) of the same compound?
Answer: < 25 nM

Question: What about the DC50 (GSPT1) of the same compound?
Answer: ≥ 25 nM

Question: And the “GSPT1 Ymin” value (GSPT1)?
Answer: F (F = >75-100% remaining)

Question: For Cn1ncc(-c2ccc3c(c2)CN(C2CCC(=O)NC2=O)C3=O)c1-c1ccc(S(=O)(=O)NC2CCCCC2)cc1 (stereo not shown) [Example 160], which “CK1α Ymin” value (CK1α) is on record?
Answer: E (E = >25-75% remaining)

Question: What about the DC50 (CK1α) of the same compound?
Answer: ≥ 25 nM

Question: What about the DC50 (GSPT1) of the same compound?
Answer: ≥ 25 nM

Question: And the “GSPT1 Ymin” value (GSPT1)?
Answer: C (C = 0-10% remaining)

Question: Which results are given for Cc1ccccc1-c1c(-c2ccc3c(c2)CN(C2CCC(=O)NC2=O)C3=O)ncn1C (stereo not shown) [Example 161]?
Answer: CK1α Ymin (CK1α): D (D = >10- 25% remaining); DC50 (CK1α): < 25 nM; DC50 (GSPT1): ≥ 25 nM; GSPT1 Ymin (GSPT1): F (F = >75-100% remaining)

Question: What does the source list for Cc1cccc(-c2c(-c3ccc4c(c3)CN(C3CCC(=O)NC3=O)C4=O)ncn2C)c1 (stereo not shown) [Example 162]?
Answer: CK1α Ymin (CK1α): C (C = 0-10% remaining); DC50 (CK1α): < 25 nM; DC50 (GSPT1): < 25 nM; GSPT1 Ymin (GSPT1): E (E = >25-75% remaining)

Question: For Cn1cnc(-c2ccc3c(c2)CN(C2CCC(=O)NC2=O)C3=O)c1-c1ccc(O)cc1 (stereo not shown) [Example 163], which “CK1α Ymin” value (CK1α) is on record?
Answer: C (C = 0-10% remaining)

Question: And the DC50 (CK1α)?
Answer: < 25 nM

Question: And the DC50 (GSPT1)?
Answer: ≥ 25 nM

Question: And the “GSPT1 Ymin” value (GSPT1)?
Answer: E (E = >25-75% remaining)

Question: Which results are given for Cn1cnc(-c2ccc3c(c2)CN(C2CCC(=O)NC2=O)C3=O)c1-c1ccccc1F (stereo not shown) [Example 164]?
Answer: CK1α Ymin (CK1α): C (C = 0-10% remaining); DC50 (CK1α): < 25 nM; DC50 (GSPT1): < 25 nM; GSPT1 Ymin (GSPT1): E (E = >25-75% remaining)

Question: How did the “CK1α Ymin” value (CK1α) turn out when Cn1cnc(-c2ccc3c(c2)CN(C2CCC(=O)NC2=O)C3=O)c1-c1ccc(C#N)cc1 (stereo not shown) [Example 165] was run?
Answer: D (D = >10- 25% remaining)

Question: And the DC50 (CK1α)?
Answer: < 25 nM

Question: What about the DC50 (GSPT1) of the same compound?
Answer: ≥ 25 nM

Question: And the “GSPT1 Ymin” value (GSPT1)?
Answer: F (F = >75-100% remaining)

Question: Which results are given for Cc1ccc(-c2c(-c3ccc4c(c3)CN(C3CCC(=O)NC3=O)C4=O)ncn2C)c(C)c1 (stereo not shown) [Example 166]?
Answer: CK1α Ymin (CK1α): E (E = >25-75% remaining); DC50 (CK1α): < 25 nM; DC50 (GSPT1): ≥ 25 nM; GSPT1 Ymin (GSPT1): E (E = >25-75% remaining)

Question: Cc1cccc(-c2c(-c3ccc4c(c3)CN(C3CCC(=O)NC3=O)C4=O)ncn2C)c1C (stereo not shown) [Example 167] was tested. Which “CK1α Ymin” value (CK1α) did it give?
Answer: E (E = >25-75% remaining)

Question: And the DC50 (CK1α)?
Answer: < 25 nM

Question: And the DC50 (GSPT1)?
Answer: < 25 nM

Question: And the “GSPT1 Ymin” value (GSPT1)?
Answer: F (F = >75-100% remaining)

Question: Which results are given for Cc1c(F)cccc1-c1c(-c2ccc3c(c2)CN(C2CCC(=O)NC2=O)C3=O)ncn1C (stereo not shown) [Example 169]?
Answer: CK1α Ymin (CK1α): E (E = >25-75% remaining); DC50 (CK1α): < 25 nM; DC50 (GSPT1): ≥ 25 nM; GSPT1 Ymin (GSPT1): F (F = >75-100% remaining)

Question: Which results are given for Cc1ccc(F)c(-c2c(-c3ccc4c(c3)CN(C3CCC(=O)NC3=O)C4=O)ncn2C)c1 (stereo not shown) [Example 170]?
Answer: CK1α Ymin (CK1α): D (D = >10- 25% remaining); DC50 (CK1α): < 25 nM; DC50 (GSPT1): ≥ 25 nM; GSPT1 Ymin (GSPT1): F (F = >75-100% remaining)

Question: With Cc1cccc(-c2c(-c3ccc4c(c3)CN(C3CCC(=O)NC3=O)C4=O)ncn2C)c1F (stereo not shown) [Example 171] as the compound, how does the “CK1α Ymin” value (CK1α) read?
Answer: D (D = >10- 25% remaining)

Question: What about the DC50 (CK1α) of the same compound?
Answer: < 25 nM

Question: And the DC50 (GSPT1)?
Answer: < 25 nM

Question: What about the “GSPT1 Ymin” value (GSPT1) of the same compound?
Answer: F (F = >75-100% remaining)

Question: For Cc1cccc(F)c1-c1c(-c2ccc3c(c2)CN(C2CCC(=O)NC2=O)C3=O)ncn1C (stereo not shown) [Example 172], which “CK1α Ymin” value (CK1α) is on record?
Answer: E (E = >25-75% remaining)

Question: What about the DC50 (CK1α) of the same compound?
Answer: < 25 nM

Question: And the DC50 (GSPT1)?
Answer: ≥ 25 nM

Question: And the “GSPT1 Ymin” value (GSPT1)?
Answer: F (F = >75-100% remaining)
